Activity calls are given as the source filed them. No cut-off for these calls is given here.
Test system: Escherichia coli
Assay: Bacteriostatic activity against Escherichia coli MTCC 443 assessed as reduction in bacterial growth at 0.5 to 2 times MIC measured upto 24 hrs by absorbance based assay
Type: functional, organism-based

With `O=[N+]([O-])c1ccccc1/C=N/CCNc1ccnc2cc(Cl)ccc12` the Activity was “Active”.
